The text below walks through data of patent US12091425B2 (AMGEN INC., priority 2016, dated 2024).

In experiment [1] the target is T1, Mcl-1/Bim interaction, recombinant human Mcl-1 (171-327) (Homo sapiens, UniProt Q07820).
T1 construct: made in house
Briefly: Cell free Mcl-1: Bim Affinity Assay (Mcl-1 HTRF). Format: binding. The gist of the method:
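Biotin-Bim(51-76) peptide, TR-FRET readout, overnight incubation; IC50 from duplicate competition curves, 4-parameter fit.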

The test system of experiment [2] is OPM-2 human multiple myeloma cell line. The experiment is described as follows: Cell Viability Assay (OPM-2 10 FBS). It counts as cell-based. The note with it: OPM-2 cells, CellTiter-Glo. The gist of the method:
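OPM-2 myeloma cells, 3000/well in medium with 10% FBS, exposed to serially diluted compounds for 16 h at 37° C./5% CO2. Viability read by CellTiter-Glo luminescence; IC50 from 4-parameter logistic fit.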

Setting [3] is: TR-FRET, 0.1 nM Mcl-1 (171-327), 0.05 nM biotin-Bim (51-76).
Setting [4] is: cell free Mcl-1:Bim TR-FRET, recombinant human Mcl-1 (171-327).
Setting [5] is: Homo sapiens, OPM-2, 16 h, 16 h.
Where [6] appears, read: Homo sapiens, OPM-2, 16 h, 16 h incubation.

T1 sequence (Q07820 171-327): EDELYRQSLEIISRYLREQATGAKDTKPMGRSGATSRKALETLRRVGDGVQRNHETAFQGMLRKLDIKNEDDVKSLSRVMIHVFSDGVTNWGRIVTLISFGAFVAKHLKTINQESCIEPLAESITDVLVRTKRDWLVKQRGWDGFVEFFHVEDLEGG

`COCCO[C@H]1/C=C/C[C@H](C)[C@H](COC)S(=O)(=O)NC(=O)c2ccc3c(c2)N(C[C@@H]2CC[C@H]21)C[C@@]1(CCCc2cc(Cl)ccc21)CO3` (single isomer, unassigned) [Example 464]: the IC50 (in general, the midpoint of a concentration-inhibition curve) in experiment [1] (setting [3]) was determined as 1.49 nM; in experiment [2] (16 h), 650 nM.

`CC(C)(C)S(=O)(=O)CC[C@@H]1CC/C=C/[C@H](O)[C@@H]2CC[C@H]2CN2C[C@@]3(CCCc4cc(Cl)ccc43)COc3ccc(cc32)C(=O)NS1(=O)=O.CC(C)(C)S(=O)(=O)CC[C@H]1CC/C=C/[C@H](O)[C@@H]2CC[C@H]2CN2C[C@@]3(CCCc4cc(Cl)ccc43)COc3ccc(cc32)C(=O)NS1(=O)=O` (mixture of isomers) [Example 154]: the IC50 in experiment [1] (setting [3]) was 0.259 nM; in experiment [2] (16 h), 7580 nM.

For the molecule `Cc1nnc(CCC2CCC=CC(O)C3CCC3CN3CC4(CCCc5cc(Cl)ccc54)COc4ccc(cc43)C(=O)NS2(=O)=O)o1` (single isomer, unassigned) [Example 632], the IC50 came to 0.187 nM in experiment [1] (setting [4]) and 878 nM in experiment [2] (setting [5]).

Regarding `COCC[C@@H]1[C@@H](C)C/C=C/[C@H](OCCN2CCOCC2)[C@@H]2CC[C@H]2CN2C[C@@]3(CCCc4cc(Cl)ccc43)COc3ccc(cc32)C(=O)NS1(=O)=O` (single isomer, unassigned) [Example 398], the IC50 is 0.233 nM in experiment [1] (setting [3]) and 88.3 nM in experiment [2] (16 h).

As to `C[C@@H]1[C@@H](C)C/C=C/[C@H](OCC(=O)NC2COC2)[C@@H]2CC[C@H]2CN2C[C@@]3(CCCc4cc(Cl)ccc43)COc3ccc(cc32)C(=O)NS1(=O)=O` [Example 303, 2-(((1S,3′R,6′R,7′S,8′E,11′S,12′R)-6-chloro-11′,12′-dimethyl-13′,13′-dioxido-15′-oxo-3,4-dihydro-2H-spiro[naphthalene-1,22′-[20]oxa[13]thia[1,14]diazatetracyclo[14.7.2.0^3,6.0^19,24]pentacosa [8,16,18,24]tetraen]-7′-yl)oxy)-N-3-oxetanylacetamide], the IC50 came out at 0.2 nM in experiment [1] (setting [3]) and 567 nM in experiment [2] (setting [5]).

In the case of `C[C@H]1/C=C/[C@H](O)[C@@H]2CC[C@H]2CN2C[C@@]3(CCCc4cc(Cl)ccc43)COc3ccc(cc32)C(=O)NS(=O)(=O)CC1` (single isomer, unassigned) [Example 491], the IC50 in experiment [1] (setting [4]) is 0.774 nM; in experiment [2] (16 h), 3480 nM.

On to `CO[C@H]1/C=C/[C@H](C)[C@H](C)[C@@H](C)S(=O)(=O)NC(=O)c2ccc3c(c2)N(C[C@@H]2CC[C@H]21)C[C@@]1(CCCc2cc(Cl)ccc21)CO3` [Example 1047, (1S,3′R,6′R,7′S,8′E,10′S,11′S,12′R)-6-chloro-7′-methoxy-10′,11′,12′-trimethyl-3,4-dihydro-2H,15′H-spiro[naphthalene-1,22′-[20]oxa[13]thia[1,14]diazatetracyclo[14.7.2.0^3,6.0^19,24]pentacosa [8,16,18,24]tetraen]-15′-one 13′,13′-dioxide], for which the IC50 was determined as 0.424 nM in experiment [1] (setting [3]) and 300 nM in experiment [2] (setting [6]).

With `CO[C@H]1C/C=C/[C@H](O)[C@@H]2CC[C@H]2CN2C[C@@]3(CCCc4cc(Cl)ccc43)COc3ccc(cc32)C(=O)NS(=O)(=O)[C@@H]1CC1CC1` (single isomer, unassigned) [Example 574], the IC50 in experiment [1] (setting [4]) is 0.393 nM; in experiment [2] (16 h), 188 nM.

Turning to `COCCN(C)C(=O)CO[C@H]1/C=C/C[C@H](C)[C@@H](C)S(=O)(=O)NC(=O)c2ccc3c(c2)N(C[C@@H]2CC[C@H]21)C[C@@]1(CCCc2cc(Cl)ccc21)CO3` [Example 299, 2-(((1S,3′R,6′R,7′S,8′E,11′S,12′R)-6-chloro-11′,12′-dimethyl-13′,13′-dioxido-15′-oxo-3,4-dihydro-2H-spiro[naphthalene-1,22′-[20]oxa[13]thia[1,14]diazatetracyclo[14.7.2.0^3,6.0^19,24]pentacosa [8,16,18,24]tetraen]-7′-yl)oxy)-N-(2-methoxyethyl)-N-methylacetamide], the results for the IC50 in experiment [1] (setting [3]) and in experiment [2] (setting [5]) were 0.275 nM and 280 nM, respectively.

`O=C1NS(=O)(=O)[C@H](Cc2ccccc2)C/C=C/[C@H](O)[C@@H]2CC[C@H]2CN2C[C@@]3(CCCc4cc(Cl)ccc43)COc3ccc1cc32` (single isomer, unassigned) [Example 646]: the half-inhibitory concentration (IC50) in experiment [1] (setting [4]) is 45.3 nM; in experiment [2] (16 h), 23700 nM.

Consider `COCCO[C@H]1/C=C/C[C@@H](C)CS(=O)(=O)NC(=O)c2ccc3c(c2)N(C[C@@H]2CC[C@H]21)C[C@@]1(CCCc2cc(Cl)ccc21)CO3` (single isomer, unassigned) [Example 375], for which the results for the IC50 in experiment [1] (setting [3]) and in experiment [2] (16 h) were 7.73 nM and 5700 nM, respectively.

Regarding `COC[C@@H](O)C[C@@H]1[C@@H](C)C/C=C/[C@H](O)[C@@H]2CC[C@H]2CN2C[C@@]3(CCCc4cc(Cl)ccc43)COc3ccc(cc32)C(=O)NS1(=O)=O` (single isomer, unassigned) [Example 672], the IC50 amounted to 0.193 nM in experiment [1] (setting [4]) and 286 nM in experiment [2] (16 h).

Take `CCO[C@@H]1/C=C/CCCS(=O)(=O)NC(=O)c2ccc3c(c2)N(C[C@@H]2CC[C@H]21)C[C@@]1(CCCc2cc(Cl)ccc21)CO3` [Example 209, (1S,3′R,6′R,7′R,8′E)-6-chloro-7′-ethoxy-3,4-dihydro-2H,15′H-spiro[naphthalene-1,22′-[20]oxa[13]thia[1,14]diazatetracyclo[14.7.2.0^3,6.0^19,24]pentacosa [8,16,18,24]tetraen]-15′-one 13′,13′-dioxide]: the IC50 was 5.25 nM in experiment [1] (setting [3]) and 5370 nM in experiment [2] (setting [5]).

Turning to `CC1C=CC(O)C2CCC2CN2CC3(CCCc4cc(Cl)ccc43)COc3ccc(cc32)C(=O)NS(=O)(=O)CC1C` (single isomer, unassigned) [Example 1061], the figures for the IC50 in experiment [1] (setting [3]) and in experiment [2] (setting [6]) were 0.711 nM and 1110 nM, respectively.

As for `CO[C@H]1/C=C/CC[C@@H](CO)S(=O)(=O)NC(=O)c2ccc3c(c2)N(C[C@@H]2CC[C@H]21)C[C@@]1(CCCc2cc(Cl)ccc21)CO3` (single isomer, unassigned) [Example 446], the results for the IC50 in experiment [1] (setting [3]) and in experiment [2] (16 h) were 0.493 nM and 419 nM, respectively.

Consider `COCCO[C@H]1CC[C@@H](C)C[C@@H](COC)S(=O)(=O)NC(=O)c2ccc3c(c2)N(C[C@@H]2CC[C@H]21)C[C@@]1(CCCc2cc(Cl)ccc21)CO3` (single isomer, unassigned) [Example 1040], for which the IC50 was 1.04 nM in experiment [1] (setting [3]) and 2190 nM in experiment [2] (16 h incubation).

With `C[C@@H]1[C@@H](C)C/C=C/[C@H](OCCN2CCC(F)(F)CC2)[C@@H]2CC[C@H]2CN2C[C@@]3(CCCc4cc(Cl)ccc43)COc3ccc(cc32)C(=O)NS1(=O)=O` [Example 10, (1S,3′R,6′R,7′S,8′E,11′S,12′R)-6-chloro-7′-(2-(4,4-difluoro-1-piperidinyl)ethoxy)-11′,12′-dimethyl-3,4-dihydro-2H,15′H-spiro[naphthalene-1,22′-[20]oxa[13]thia[1,14]diazatetracyclo[14.7.2.0^3,6.0^19,24]pentacosa[8,16,18,24]tetraen]-15′-one-13,13′-dioxide], the IC50 in experiment [1] (setting [3]) was determined as 2.97 nM; in experiment [2] (setting [5]) it was 630 nM.

Turning to `CO[C@H]1/C=C/C[C@@H]2COCC[C@H]2S(=O)(=O)NC(=O)c2ccc3c(c2)N(C[C@@H]2CC[C@H]21)C[C@@]1(CCCc2cc(Cl)ccc21)CO3` (single isomer, unassigned) [Example 320], the figures for the IC50 in experiment [1] (setting [3]) and in experiment [2] (16 h) were 0.329 nM and 342 nM, respectively.

Regarding `C[C@@H]1CC/C=C/[C@H](OCc2ncn(C)n2)[C@@H]2CC[C@H]2CN2C[C@@]3(CCCc4cc(Cl)ccc43)COc3ccc(cc32)C(=O)NS1(=O)=O` [Example 410, (1S,3′R,6′R,7′S,8′E,12′R)-6-chloro-12′-methyl-7′-((l-methyl-1H-1,2,4-triazol-3-yl)methoxy)-3,4-dihydro-2H,15′H-spiro[naphthalene-1,22′-[20]oxa[13]thia[1,14]diazatetracyclo[14.7.2.0^3,6.0^19,24]pentacosa [8,16,18,24]tetraen]-15′-one 13′,13′-dioxide], the IC50 in experiment [1] (setting [3]) is 0.144 nM; in experiment [2] (setting [5]), 208 nM.

For the molecule `COCCO[C@H]1/C=C/[C@H](C)[C@H](C)[C@@H](C)S(=O)(=O)NC(=O)c2ccc3c(c2)N(C[C@@H]2CC[C@H]21)C[C@@]1(CCCc2cc(Cl)ccc21)CO3` [Example 1048, (1S,3′R,6′R,7′S,8′E,10′S,11′S,12′R)-6-chloro-7′-(2-methoxyethoxy)-10′,11′,12′-trimethyl-3,4-dihydro-2H,15′H-spiro[naphthalene-1,22′-[20]oxa[13]thia[1,14]diazatetracyclo[14.7.2.0^3,6.0^19,24]pentacosa [8,16,18,24]tetraen]-15′-one 13′,13′-dioxide], the IC50 in experiment [1] (setting [3]) came to 0.299 nM; in experiment [2] (setting [6]), 90.8 nM.

On to `CCOC(=O)CCO[C@H]1/C=C/CC[C@@H](CC)S(=O)(=O)NC(=O)c2ccc3c(c2)N(C[C@@H]2CC[C@H]21)C[C@@]1(CCCc2cc(Cl)ccc21)CO3` [Example 1009, ethyl 3-(((1S,3′R,6′R,7′S,8′E,12′R)-6-chloro-12′-ethyl-13′,13′-dioxido-15′-oxo-3,4-dihydro-2H-spiro[naphthalene-1,22′-[20]oxa[13]thia[1,14]diazatetracyclo[14.7.2.0^3,6.0^19,24]pentacosa [8,16,18,24]tetraen]-7′-yl)oxy)propanoate], for which the IC50 in experiment [1] (setting [3]) is 1.23 nM; in experiment [2] (setting [6]) it was 702 nM.

As for `C[C@H]1[C@H](C)CC[C@H](O)[C@@H]2CC[C@H]2CN2C[C@@]3(CCCc4cc(Cl)ccc43)COc3ccc(cc32)C(=O)NS(=O)(=O)[C@@H]1C` [Example 1046, (1S,3′R,6′R,7′S,10′R,11′S,12′R)-6-chloro-7′-hydroxy-10′,11′,12′-trimethyl-3,4-dihydro-2H,15′H-spiro[naphthalene-1,22′-[20]oxa[13]thia[1,14]diazatetracyclo[14.7.2.0^3,6.0^19,24]pentacosa [16,18,24]trien]-15′-one 13′,13′-dioxide], the results for the IC50 in experiment [1] (setting [3]) and in experiment [2] (setting [6]) were 0.785 nM and 2520 nM, respectively.
